According to PubChem BioAssay AID1963974 (Molecular Pharmacology Branch, DTP, NCI, 2024):

Test system: 648629-189-R-J1-PDC spheroids with HUVEC/MSC, viability
Assay: Anticancer human tumor 648629-189-R-J1-PDC patient-derived bladder carcinoma cell line growth inhibition [PI3K]
Conditions: for IC50: curve of first compound; for viability, T/C: stronger effect = lower value
Summary of the method: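 High-throughput combination screen: PI3K inhibitors crossed with targeted small molecules on complex spheroids of tumor cells, HUVEC and MSCs at 37 degrees C, 5% CO2. Top concentration was at or near clinical Cmax (otherwise 10 microM), with half-log decrements.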

[1] = second compound 0.0316 µM, first compound 0.0316 µM
[2] = second compound 0.0316 µM, first compound 0.1 µM
[3] = second compound 0.0316 µM, first compound 0.316 µM
[4] = second compound 0.0316 µM, first compound 1 µM
[5] = second compound 0.0316 µM, first compound 3.16 µM
[6] = second compound 0.0316 µM, first compound 10 µM
[7] = second compound 0.1 µM, first compound 0.0316 µM
[8] = second compound 0.1 µM, first compound 0.1 µM
[9] = second compound 0.1 µM, first compound 0.316 µM
[10] = second compound 0.1 µM, first compound 1 µM
[11] = second compound 0.1 µM, first compound 3.16 µM
[12] = second compound 0.1 µM, first compound 10 µM
[13] = second compound 0.316 µM, first compound 0.0316 µM
[14] = second compound 0.316 µM, first compound 0.1 µM
[15] = second compound 0.316 µM, first compound 0.316 µM
[16] = second compound 0.316 µM, first compound 1 µM
[17] = second compound 0.316 µM, first compound 3.16 µM
[18] = second compound 0.316 µM, first compound 10 µM
[19] = second compound 1 µM, first compound 0.0316 µM
[20] = second compound 1 µM, first compound 0.1 µM
[21] = second compound 1 µM, first compound 0.316 µM
[22] = second compound 1 µM, first compound 1 µM
[23] = second compound 1 µM, first compound 3.16 µM
[24] = second compound 1 µM, first compound 10 µM
[25] = second compound 3.16 µM, first compound 0.0316 µM
[26] = second compound 3.16 µM, first compound 0.1 µM
[27] = second compound 3.16 µM, first compound 0.316 µM
[28] = second compound 3.16 µM, first compound 1 µM
[29] = second compound 3.16 µM, first compound 3.16 µM
[30] = second compound 3.16 µM, first compound 10 µM
[31] = second compound 10 µM, first compound 0.0316 µM
[32] = second compound 10 µM, first compound 0.1 µM
[33] = second compound 10 µM, first compound 0.316 µM
[34] = second compound 10 µM, first compound 1 µM
[35] = second compound 10 µM, first compound 3.16 µM
[36] = second compound 10 µM, first compound 10 µM
[37] = second compound 0.00316 µM, first compound 0.0316 µM
[38] = second compound 0.00316 µM, first compound 0.1 µM
[39] = second compound 0.00316 µM, first compound 0.316 µM
[40] = second compound 0.00316 µM, first compound 1 µM
[41] = second compound 0.00316 µM, first compound 3.16 µM
[42] = second compound 0.00316 µM, first compound 10 µM
[43] = second compound 0.01 µM, first compound 0.0316 µM
[44] = second compound 0.01 µM, first compound 0.1 µM
[45] = second compound 0.01 µM, first compound 0.316 µM
[46] = second compound 0.01 µM, first compound 1 µM
[47] = second compound 0.01 µM, first compound 3.16 µM
[48] = second compound 0.01 µM, first compound 10 µM
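Note: spheroids exposed to agents for seven days before reading.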
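Throughout, for viability, T/C: percent of vehicle control luminescence where 100% = DMSO treated spheroids.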

CC(Cn1ccc(-c2ccc(C#N)c(Cl)c2)n1)NC(=O)c1cc(C(C)O)[nH]n1 (stereo not given) + Cc1nc(NC(=O)N2CCCC2C(N)=O)sc1-c1ccnc(C(C)(C)C(F)(F)F)c1
IC50 (second compound 0.0316 µM): > 10 µM | IC50 (second compound 0.1 µM): > 10 µM | IC50 (second compound 0.316 µM): > 10 µM | IC50 (second compound 1 µM): > 10 µM | IC50 (second compound 3.16 µM): > 10 µM | IC50 (second compound 10 µM): < 0.0316 µM | viability, T/C [1]: 86.5% | viability, T/C [2]: 95.8% | viability, T/C [3]: 95.9% | viability, T/C [4]: 87.5% | viability, T/C [5]: 82.8% | viability, T/C [6]: 67.1% | viability, T/C [7]: 92.4% | viability, T/C [8]: 91.8% | viability, T/C [9]: 87.7% | viability, T/C [10]: 89.6% | viability, T/C [11]: 77.7% | viability, T/C [12]: 66.2% | viability, T/C [13]: 91.5% | viability, T/C [14]: 84.6% | viability, T/C [15]: 87.3% | viability, T/C [16]: 81.5% | viability, T/C [17]: 78.1% | viability, T/C [18]: 68.2% | viability, T/C [19]: 70.8% | viability, T/C [20]: 74.2% | viability, T/C [21]: 68.1% | viability, T/C [22]: 69.9% | viability, T/C [23]: 63.9% | viability, T/C [24]: 62.3% | viability, T/C [25]: 53.1% | viability, T/C [26]: 54.6% | viability, T/C [27]: 47.4% | viability, T/C [28]: 51.5% | viability, T/C [29]: 57.1% | viability, T/C [30]: 52.6% | viability, T/C [31]: 38.5% | viability, T/C [32]: 38.6% | viability, T/C [33]: 35.4% | viability, T/C [34]: 40.4% | viability, T/C [35]: 36.9% | viability, T/C [36]: 37.4%

C#Cc1c(F)ccc2cc(O)cc(-c3ncc4c(N5CC6CCC(C5)N6)nc(OCC56CCCN5CC(F)C6)nc4c3F)c12 (stereo not given) + COc1c(OCCCN2CCOCC2)ccc2c3n(c(=NC(=O)c4cnc(N)nc4)nc12)CCN3
IC50 (second compound 0.00316 µM): > 10 µM | IC50 (second compound 0.01 µM): > 10 µM | IC50 (second compound 0.0316 µM): > 10 µM | IC50 (second compound 0.1 µM): > 10 µM | IC50 (second compound 0.316 µM): < 0.0316 µM | IC50 (second compound 1 µM): < 0.0316 µM | viability, T/C [37]: 107% | viability, T/C [38]: 100% | viability, T/C [39]: 96.5% | viability, T/C [40]: 112% | viability, T/C [41]: 105% | viability, T/C [42]: 94.6% | viability, T/C [43]: 112% | viability, T/C [44]: 104% | viability, T/C [45]: 103% | viability, T/C [46]: 113% | viability, T/C [47]: 102% | viability, T/C [48]: 103% | viability, T/C [1]: 89.4% | viability, T/C [2]: 91.2% | viability, T/C [3]: 85.9% | viability, T/C [4]: 92.2% | viability, T/C [5]: 79.7% | viability, T/C [6]: 91.5% | viability, T/C [7]: 67.2% | viability, T/C [8]: 61.3% | viability, T/C [9]: 58.2% | viability, T/C [10]: 60.6% | viability, T/C [11]: 65.1% | viability, T/C [12]: 57.5% | viability, T/C [13]: 24.3% | viability, T/C [14]: 21.2% | viability, T/C [15]: 18.3% | viability, T/C [16]: 19.8% | viability, T/C [17]: 17.9% | viability, T/C [18]: 5.74% | viability, T/C [19]: 3.22% | viability, T/C [20]: 2.48% | viability, T/C [21]: 2.94% | viability, T/C [22]: 3.35% | viability, T/C [23]: 3.07% | viability, T/C [24]: 0.58%

C#Cc1c(F)ccc2cc(O)cc(-c3ncc4c(N5CC6CCC(C5)N6)nc(OCC56CCCN5CC(F)C6)nc4c3F)c12 (stereo not given) + CC(Nc1ncnc2nc[nH]c12)c1cc2cccc(Cl)c2c(=O)n1-c1ccccc1
IC50 (second compound 0.0316 µM): > 10 µM | IC50 (second compound 0.1 µM): > 10 µM | IC50 (second compound 0.316 µM): > 10 µM | IC50 (second compound 1 µM): > 10 µM | IC50 (second compound 3.16 µM): > 10 µM | IC50 (second compound 10 µM): > 10 µM | viability, T/C [1]: 116% | viability, T/C [2]: 114% | viability, T/C [3]: 103% | viability, T/C [4]: 107% | viability, T/C [5]: 105% | viability, T/C [6]: 117% | viability, T/C [7]: 116% | viability, T/C [8]: 100% | viability, T/C [9]: 104% | viability, T/C [10]: 106% | viability, T/C [11]: 117% | viability, T/C [12]: 110% | viability, T/C [13]: 102% | viability, T/C [14]: 110% | viability, T/C [15]: 101% | viability, T/C [16]: 113% | viability, T/C [17]: 116% | viability, T/C [18]: 111% | viability, T/C [19]: 92.8% | viability, T/C [20]: 104% | viability, T/C [21]: 107% | viability, T/C [22]: 114% | viability, T/C [23]: 107% | viability, T/C [24]: 94.4% | viability, T/C [25]: 92% | viability, T/C [26]: 91.4% | viability, T/C [27]: 90.7% | viability, T/C [28]: 90.1% | viability, T/C [29]: 93.4% | viability, T/C [30]: 88.1% | viability, T/C [31]: 90.7% | viability, T/C [32]: 86.1% | viability, T/C [33]: 75.7% | viability, T/C [34]: 102% | viability, T/C [35]: 92.5% | viability, T/C [36]: 80.3%

Cn1nccc1Nc1nccc(-c2ccn(C(CO)c3ccc(Cl)c(F)c3)c(=O)c2)n1 (stereo not given) + CC(Nc1ncnc2nc[nH]c12)c1cc2cccc(Cl)c2c(=O)n1-c1ccccc1
IC50 (second compound 0.0316 µM): > 10 µM | IC50 (second compound 0.1 µM): > 10 µM | IC50 (second compound 0.316 µM): > 10 µM | IC50 (second compound 1 µM): > 10 µM | IC50 (second compound 3.16 µM): > 10 µM | IC50 (second compound 10 µM): > 10 µM | viability, T/C [1]: 104% | viability, T/C [2]: 95.8% | viability, T/C [3]: 101% | viability, T/C [4]: 110% | viability, T/C [5]: 94% | viability, T/C [6]: 86.5% | viability, T/C [7]: 101% | viability, T/C [8]: 88.9% | viability, T/C [9]: 102% | viability, T/C [10]: 105% | viability, T/C [11]: 100% | viability, T/C [12]: 88.4% | viability, T/C [13]: 116% | viability, T/C [14]: 96.2% | viability, T/C [15]: 96.8% | viability, T/C [16]: 88.7% | viability, T/C [17]: 101% | viability, T/C [18]: 80.4% | viability, T/C [19]: 104% | viability, T/C [20]: 93.9% | viability, T/C [21]: 101% | viability, T/C [22]: 105% | viability, T/C [23]: 102% | viability, T/C [24]: 79.3% | viability, T/C [25]: 88.5% | viability, T/C [26]: 103% | viability, T/C [27]: 100% | viability, T/C [28]: 100% | viability, T/C [29]: 93% | viability, T/C [30]: 73.6% | viability, T/C [31]: 86.5% | viability, T/C [32]: 80.6% | viability, T/C [33]: 79.9% | viability, T/C [34]: 90.8% | viability, T/C [35]: 97.7% | viability, T/C [36]: 78.5%

CC1(C)CCC(CN2CCN(c3ccc(C(=O)NS(=O)(=O)c4ccc(NCC5CCOCC5)c([N+](=O)[O-])c4)c(Oc4cnc5[nH]ccc5c4)c3)CC2)=C(c2ccc(Cl)cc2)C1 + COc1c(OCCCN2CCOCC2)ccc2c3n(c(=NC(=O)c4cnc(N)nc4)nc12)CCN3
IC50 (second compound 0.00316 µM): > 10 µM | IC50 (second compound 0.01 µM): > 10 µM | IC50 (second compound 0.0316 µM): > 10 µM | IC50 (second compound 0.1 µM): > 10 µM | IC50 (second compound 0.316 µM): < 0.0316 µM | IC50 (second compound 1 µM): < 0.0316 µM | viability, T/C [37]: 107% | viability, T/C [38]: 97.6% | viability, T/C [39]: 119% | viability, T/C [40]: 108% | viability, T/C [41]: 86.5% | viability, T/C [42]: 98.2% | viability, T/C [43]: 104% | viability, T/C [44]: 106% | viability, T/C [45]: 106% | viability, T/C [46]: 91.2% | viability, T/C [47]: 91% | viability, T/C [48]: 102% | viability, T/C [1]: 97% | viability, T/C [2]: 99.8% | viability, T/C [3]: 114% | viability, T/C [4]: 89.5% | viability, T/C [5]: 92.7% | viability, T/C [6]: 102% | viability, T/C [7]: 65.7% | viability, T/C [8]: 68.8% | viability, T/C [9]: 65.8% | viability, T/C [10]: 63.8% | viability, T/C [11]: 59.3% | viability, T/C [12]: 58.4% | viability, T/C [13]: 24.1% | viability, T/C [14]: 22.1% | viability, T/C [15]: 23.5% | viability, T/C [16]: 19.9% | viability, T/C [17]: 23.7% | viability, T/C [18]: 19.6% | viability, T/C [19]: 4.02% | viability, T/C [20]: 3.65% | viability, T/C [21]: 4.06% | viability, T/C [22]: 3.2% | viability, T/C [23]: 3.26% | viability, T/C [24]: 2.9%
